Tests used:
MEKK3 = target: T1, MEKK3 (Homo sapiens, UniProt Q99759); experiment: MEKK3 mobility band shift on high-ratio acrylamide:bis-acrylamide SDS-PAGE of lysates from treated cells; assay type: cell-based; settings: MEKK3 expressed in treated HEK293 cells; data not shown
T1 construct: expressed in transfected cells; host or cells: HEK 293
T1 sequence (Q99759 1-626): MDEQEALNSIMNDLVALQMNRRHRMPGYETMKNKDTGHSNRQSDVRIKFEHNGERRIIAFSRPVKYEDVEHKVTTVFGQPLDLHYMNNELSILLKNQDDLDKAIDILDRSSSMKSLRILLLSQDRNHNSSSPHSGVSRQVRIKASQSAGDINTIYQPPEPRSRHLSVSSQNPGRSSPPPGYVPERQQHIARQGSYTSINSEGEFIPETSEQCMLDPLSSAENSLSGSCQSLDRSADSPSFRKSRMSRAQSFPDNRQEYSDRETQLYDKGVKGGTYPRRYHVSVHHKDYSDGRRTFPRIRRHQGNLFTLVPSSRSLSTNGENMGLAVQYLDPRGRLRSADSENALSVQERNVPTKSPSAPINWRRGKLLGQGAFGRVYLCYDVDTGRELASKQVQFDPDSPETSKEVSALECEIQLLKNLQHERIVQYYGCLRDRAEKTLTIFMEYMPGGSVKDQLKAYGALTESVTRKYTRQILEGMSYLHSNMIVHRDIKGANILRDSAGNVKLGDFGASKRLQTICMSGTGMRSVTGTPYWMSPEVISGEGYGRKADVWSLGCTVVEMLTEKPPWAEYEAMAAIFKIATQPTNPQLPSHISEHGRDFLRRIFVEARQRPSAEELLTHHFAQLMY

MEKK3-14-3-3 interaction = target: T2, MEKK3-14-3-3 interaction (Homo sapiens, UniProt Q99759); experiment: Co-immunoprecipitation of 14-3-3 with FLAG-MEKK3 from HEK 293 cells treated with kinase inhibitor; assay type: cell-based; settings: HEK 293 cells with wt MEKK3; 1 μM, 5 μM or 10 μM for 20 min prior to solubilization
T2 construct: expressed in transfected cells; host or cells: HEK 293
T2 sequence (Q99759 1-626): T1 sequence (Q99759 1-626)
Description: A, B. HEK 293 cells were transfected with wildtype (wt) MEKK3, K391M MEKK3, or S526A MEKK (shown in B) or empty vector. After 24 hours, cells were solubilized, and FLAG-MEKK3 was immunoprecipitated with anti-FLAG M2-conjugated agarose. Proteins were resolved by SDS-PAGE, and immunoblotted with anti-FLAG antibody or anti-14-3-3β antibody (which recognizes the family of 14-3-3 proteins). C. HEK 293 cells were transfected with wt MEKK3 for 24 hours, and then treated with staurosporine (1 μM, 5 μM, or 10 μM) for 20 min prior to solubilization. MEKK3 and 14-3-3 were detected as in A.
HEK 293 cells were plated onto 35-mm-diameter dishes at 80% confluency, and transfected with 100 to 500 ng of cDNA using Lipofectamine-2000 (Gibco-BRL) following the manufacturer's protocol. Transfection medium was removed and replaced with complete DMEM overnight.
Cells were lysed in 50 mM Tris-HCl, pH 7.4, 1% Triton X-100, 25 mM NaF, 25 mM β-glycerophosphate, 5 mM EDTA, 0.05% SDS, 1.0 μg/ml microcystin LR, and protease inhibitors. […] FLAG was stained with anti-FLAG M2 mouse monoclonal (Sigma), and 14-3-3 isoforms were detected with anti-14-3-3β (H8; Santa Cruz Biotechnology).
The family of 14-3-3 proteins was detected by immunoblotting with a pan-specific 14-3-3 antibody raised against a common sequence present in all family members. […]

SMILES | MEKK3 band shift (mobility shift on SDS-PAGE) (MEKK3) | MEKK3-14-3-3 interaction (14-3-3 co-immunoprecipitation) (MEKK3-14-3-3 interaction)
N#CC(=C(/N)Sc1ccccc1N)/C(C#N)=C(\N)Sc1ccccc1N [U0126] | had no effect on mobility shift | 
CN[C@@H]1C[C@H]2O[C@@](C)([C@@H]1OC)n1c3ccccc3c3c4c(c5c6ccccc6n2c5c31)C(=O)NC4 [staurosporine] | reduced the MEKK3 band shift | disrupted MEKK3-14-3-3 interaction

— patent publication US20090156466A1, “Characterization of a MEKK binding site and uses thereof” (priority 2007, published 2009)
